Values quoted from earlier work in patent US20230286919A1, “ISOQUINOLINE DERIVATIVES FOR USE IN THERAPY” (Vestlandets Innovasjonsselskap AS, priority 2020, published 2023).

Test system: STAT1 and STAT5
Details: cited from earlier work

Cc1ccc(S(=O)(=O)OCC(=O)Nc2ccc(C(=O)O)c(O)c2)cc1 [S3I-201]
Activity towards STAT1 and STAT5: low activity
